Measured values reported in the NIST ThermoML archive (doi:10.1021/je401036f).

Assay: xn = mol fraction of the nth substance listed
Conditions: 101 kPa, Liquid; for viscosity: Concentric cylinders viscometry; for mass density: Vibrating tube method

CC(O)CN (stereo not given) [1-amino-2-propanol] + CCC(C)O
Conditions | mass density [kg/m3] | viscosity [mPa·s]
288.15 K, x1 = 0.1003 | 823.697 | 5.068
288.15 K, x1 = 0.2005 | 837.759 | 5.97
288.15 K, x1 = 0.3 | 852.257 | 7.261
288.15 K, x1 = 0.3999 | 867.392 | 9.219
288.15 K, x1 = 0.5 | 882.695 | 11.68
288.15 K, x1 = 0.6001 | 898.243 | 14.95
288.15 K, x1 = 0.7 | 914.159 | 19.39
288.15 K, x1 = 0.8 | 930.494 | 25.16
288.15 K, x1 = 0.8999 | 947.198 | 32.94
288.15 K, x1 = 1 | 964.544 | 43.7
293.15 K, x1 = 0.1003 | 819.706 | 4.16
293.15 K, x1 = 0.2005 | 833.763 | 4.888
293.15 K, x1 = 0.3 | 848.265 | 5.949
293.15 K, x1 = 0.3999 | 863.403 | 7.373
293.15 K, x1 = 0.5 | 878.701 | 9.189
293.15 K, x1 = 0.6001 | 894.252 | 11.6
293.15 K, x1 = 0.7 | 910.183 | 14.8
293.15 K, x1 = 0.8 | 926.524 | 18.77
293.15 K, x1 = 0.8999 | 943.272 | 24.3
293.15 K, x1 = 1 | 960.598 | 31.68
298.15 K, x1 = 0.1003 | 815.665 | 3.45
298.15 K, x1 = 0.2005 | 829.72 | 4.048
298.15 K, x1 = 0.3 | 844.235 | 4.884
298.15 K, x1 = 0.3999 | 859.38 | 5.96
298.15 K, x1 = 0.5 | 874.691 | 7.338
298.15 K, x1 = 0.6001 | 890.255 | 9.121
298.15 K, x1 = 0.7 | 906.21 | 11.45
298.15 K, x1 = 0.8 | 922.526 | 14.41
298.15 K, x1 = 0.8999 | 939.29 | 18.35
298.15 K, x1 = 1 | 956.618 | 23.54
303.15 K, x1 = 0.1003 | 811.527 | 2.889
303.15 K, x1 = 0.2005 | 825.623 | 3.378
303.15 K, x1 = 0.3 | 840.158 | 4.059
303.15 K, x1 = 0.3999 | 855.316 | 4.898
303.15 K, x1 = 0.5 | 870.629 | 5.963
303.15 K, x1 = 0.6001 | 886.197 | 7.316
303.15 K, x1 = 0.7 | 902.141 | 9.136
303.15 K, x1 = 0.8 | 918.502 | 11.31
303.15 K, x1 = 0.8999 | 935.275 | 14.16
303.15 K, x1 = 1 | 952.612 | 17.89
308.15 K, x1 = 0.1003 | 807.298 | 2.444
308.15 K, x1 = 0.2005 | 821.466 | 2.86
308.15 K, x1 = 0.3 | 836.03 | 3.407
308.15 K, x1 = 0.3999 | 851.209 | 4.08
308.15 K, x1 = 0.5 | 866.532 | 4.929
308.15 K, x1 = 0.6001 | 882.111 | 5.962
308.15 K, x1 = 0.7 | 898.074 | 7.358
308.15 K, x1 = 0.8 | 914.445 | 9.005
308.15 K, x1 = 0.8999 | 931.229 | 11.12
308.15 K, x1 = 1 | 948.577 | 13.88
313.15 K, x1 = 0.1003 | 803.008 | 2.083
313.15 K, x1 = 0.2005 | 817.246 | 2.436
313.15 K, x1 = 0.3 | 831.847 | 2.887
313.15 K, x1 = 0.3999 | 847.055 | 3.435
313.15 K, x1 = 0.5 | 862.397 | 4.114
313.15 K, x1 = 0.6001 | 877.993 | 4.924
313.15 K, x1 = 0.7 | 893.97 | 6.014
313.15 K, x1 = 0.8 | 910.355 | 7.28
313.15 K, x1 = 0.8999 | 927.181 | 8.894
313.15 K, x1 = 1 | 944.515 | 10.96
318.15 K, x1 = 0.1003 | 798.619 | 1.795
318.15 K, x1 = 0.2005 | 812.957 | 2.094
318.15 K, x1 = 0.3 | 827.606 | 2.466
318.15 K, x1 = 0.3999 | 842.848 | 2.917
318.15 K, x1 = 0.5 | 858.232 | 3.47
318.15 K, x1 = 0.6001 | 873.856 | 4.113
318.15 K, x1 = 0.7 | 889.829 | 4.982
318.15 K, x1 = 0.8 | 906.227 | 5.972
318.15 K, x1 = 0.8999 | 923.11 | 7.219
318.15 K, x1 = 1 | 940.423 | 8.798
323.15 K, x1 = 0.1003 | 794.161 | 1.556
323.15 K, x1 = 0.2005 | 808.592 | 1.814
323.15 K, x1 = 0.3 | 823.3 | 2.124
323.15 K, x1 = 0.3999 | 838.586 | 2.499
323.15 K, x1 = 0.5 | 853.992 | 2.954
323.15 K, x1 = 0.6001 | 869.642 | 3.477
323.15 K, x1 = 0.7 | 885.646 | 4.164
323.15 K, x1 = 0.8 | 902.064 | 4.955
323.15 K, x1 = 0.8999 | 918.943 | 5.938
323.15 K, x1 = 1 | 936.293 | 7.166
328.15 K, x1 = 0.1003 | 789.608 | 1.358
328.15 K, x1 = 0.2005 | 804.15 | 1.576
328.15 K, x1 = 0.3 | 818.925 | 1.845
328.15 K, x1 = 0.3999 | 834.264 | 2.154
328.15 K, x1 = 0.5 | 849.702 | 2.529
328.15 K, x1 = 0.6001 | 865.379 | 2.969
328.15 K, x1 = 0.7 | 881.417 | 3.521
328.15 K, x1 = 0.8 | 897.859 | 4.163
328.15 K, x1 = 0.8999 | 914.764 | 4.947
328.15 K, x1 = 1 | 932.13 | 5.915
333.15 K, x1 = 0.1003 | 784.956 | 1.211
333.15 K, x1 = 0.2005 | 799.616 | 1.398
333.15 K, x1 = 0.3 | 814.474 | 1.637
333.15 K, x1 = 0.3999 | 829.873 | 1.897
333.15 K, x1 = 0.5 | 845.357 | 2.212
333.15 K, x1 = 0.6001 | 861.071 | 2.59
333.15 K, x1 = 0.7 | 877.143 | 3.042
333.15 K, x1 = 0.8 | 893.609 | 3.571
333.15 K, x1 = 0.8999 | 910.537 | 4.21
333.15 K, x1 = 1 | 927.93 | 4.986
